Laboratory results published in ChEMBL document CHEMBL5528082 (J Med Chem, 2024).
In brackets after ≈: the same amount, converted by molar mass.

Tests used:
Staphylococcus aureus [1] = assay: Antibacterial activity against Staphylococcus aureus ATCC 25923 incubated for 24 hrs by CLSI based broth microdilution assay; type: functional
Staphylococcus aureus [2] = assay: Antibacterial activity against Staphylococcus aureus USA 300 incubated for 24 hrs by CLSI based broth microdilution assay; type: functional
Staphylococcus aureus [3] = assay: Antibacterial activity against TMP-resistant Staphylococcus aureus BHKS 227 incubated for 24 hrs by CLSI based broth microdilution assay; type: functional
Staphylococcus aureus [4] = assay: Antibacterial activity against TMP-resistant Staphylococcus aureus BHKS 721 incubated for 24 hrs by CLSI based broth microdilution assay; type: functional
Staphylococcus aureus [5] = assay: Antibacterial activity against TMP-resistant Staphylococcus aureus BHKS 723 incubated for 24 hrs by CLSI based broth microdilution assay; type: functional
Staphylococcus aureus [6] = assay: Antibacterial activity against TMP-resistant Staphylococcus aureus BHKS 231 incubated for 24 hrs by CLSI based broth microdilution assay; type: functional
Dihydrofolate reductase [7] = target: T1, Dihydrofolate reductase (Homo sapiens, UniProt P00374); assay: Inhibition of human DHFR
T1 sequence (P00374 whole entry): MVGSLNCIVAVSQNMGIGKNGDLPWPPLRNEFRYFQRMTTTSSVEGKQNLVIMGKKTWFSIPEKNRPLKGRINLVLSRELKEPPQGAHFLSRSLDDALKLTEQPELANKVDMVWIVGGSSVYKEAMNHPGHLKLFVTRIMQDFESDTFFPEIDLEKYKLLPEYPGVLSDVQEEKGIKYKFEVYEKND

Dihydrofolate reductase [8] = target: T2, Dihydrofolate reductase (Mycobacterium tuberculosis, UniProt P9WNX1); assay: Inhibition of Mycobacterium tuberculosis DHFR
T2 sequence (P9WNX1 whole entry): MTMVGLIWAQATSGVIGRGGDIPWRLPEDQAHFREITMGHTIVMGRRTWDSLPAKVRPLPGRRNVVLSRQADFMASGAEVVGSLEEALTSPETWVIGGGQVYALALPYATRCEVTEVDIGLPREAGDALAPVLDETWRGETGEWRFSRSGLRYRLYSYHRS

[9] = system: Mycobacterium tuberculosis; assay: Antibacterial activity against Mycobacterium tuberculosis H37Ra; type: functional
[10] = Cytotoxicity against HEK293 cells assessed as inhibition rate of cell growth at 100 uM incubated for 24 hrs by CCK8 assay relative to control; type: toxicity, cell-based; details: human
[11] = Cytotoxicity against human NCM460 cells assessed as inhibition rate of cell growth at 100 uM incubated for 24 hrs by CCK8 assay relative to control; type: toxicity, cell-based
Dihydrofolate reductase [12] = target: Dihydrofolate reductase (Staphylococcus aureus, UniProt P0A017); assay: Inhibition of Staphylococcus aureus DHFR expressed in Escherichia coli BL21 (DE3) using DHF as substrate preincubated for 10 mins followed by substrate addition measured for 10 mins in presence of NADPH by spectrophotometry
[13] = system: Dihydrofolate reductase (Staphylococcus aureus); details: dose 100.0 nM

Sequence of Dihydrofolate reductase (Staphylococcus aureus, UniProt P0A017) (P0A017 whole entry): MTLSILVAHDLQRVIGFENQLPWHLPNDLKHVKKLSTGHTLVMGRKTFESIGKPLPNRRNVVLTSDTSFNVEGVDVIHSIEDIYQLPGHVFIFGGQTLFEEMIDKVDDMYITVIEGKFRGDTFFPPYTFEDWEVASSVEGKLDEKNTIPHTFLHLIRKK

With `Cc1cc(NS(=O)(=O)c2ccc(N)cc2)no1` [SULFAMETHOXAZOLE] the MIC (Staphylococcus aureus [1]) was 2 µg/mL (≈ 7.9 µM), the MIC (Staphylococcus aureus [2]) was 2 µg/mL (≈ 7.9 µM) and the MIC (Staphylococcus aureus [3]) was 4 µg/mL (≈ 15.8 µM). For the same compound, the MIC (Staphylococcus aureus [4]) was 0.5 µg/mL (≈ 1.97 µM), the MIC (Staphylococcus aureus [5]) was 4 µg/mL (≈ 15.8 µM) and the MIC (Staphylococcus aureus [6]) was 256 µg/mL (≈ 1010 µM).

In the case of `COc1cc(C(C)C)c(Oc2cnc(N)nc2N)cc1I`, the IC50 (Dihydrofolate reductase [7]) is reported as 176000 nM, the IC50 (Dihydrofolate reductase [8]) is reported as 3500 nM and the MIC [9] is reported as 50 µg/mL (≈ 125 µM). It also gave an MIC (Staphylococcus aureus [1]) of 0.125 µg/mL (≈ 0.312 µM), an MIC (Staphylococcus aureus [2]) of 0.063 µg/mL (≈ 0.157 µM) and an MIC (Staphylococcus aureus [3]) of 0.5 µg/mL (≈ 1.25 µM). It also gave an MIC (Staphylococcus aureus [4]) of 8 µg/mL (≈ 20 µM), an MIC (Staphylococcus aureus [5]) of 8 µg/mL (≈ 20 µM) and an inhibition at 24 h, 100 µM [10] of 26.1%. The inhibition at 24 h, 100 µM [11] was 32.1% and the IC50 (Dihydrofolate reductase [12]) was 32.9 nM.

In the case of `COc1cc(C(C)C)c(Oc2cnc(N)nc2N)cc1CC(C)C`, the MIC (Staphylococcus aureus [1]) is reported as 0.5 µg/mL (≈ 1.51 µM), the MIC (Staphylococcus aureus [2]) is reported as 0.5 µg/mL (≈ 1.51 µM) and the MIC (Staphylococcus aureus [3]) is reported as 4 µg/mL (≈ 12.1 µM). For the same compound, the MIC (Staphylococcus aureus [4]) was 16 µg/mL (≈ 48.4 µM), the MIC (Staphylococcus aureus [5]) was 16 µg/mL (≈ 48.4 µM) and the inhibition at 24 h, 100 µM [10] was 57.8%. For the same compound, the inhibition at 24 h, 100 µM [11] was 67.4%, the IC50 (Dihydrofolate reductase [12]) was 24.2 nM and the inhibition [13] was > 100%.

Work on `CC(C)c1cc(OCC2CCC2)c(I)cc1Oc1cnc(N)nc1N` yielded an MIC (Staphylococcus aureus [1]) of 0.125 µg/mL (≈ 0.275 µM), an MIC (Staphylococcus aureus [2]) of 0.125 µg/mL (≈ 0.275 µM) and an MIC (Staphylococcus aureus [3]) of 1 µg/mL (≈ 2.2 µM). For the same compound, the MIC (Staphylococcus aureus [4]) was 4 µg/mL (≈ 8.8 µM), the MIC (Staphylococcus aureus [5]) was 4 µg/mL (≈ 8.8 µM) and the inhibition at 24 h, 100 µM [10] was 57.9%. The inhibition at 24 h, 100 µM [11] was 13.2%, the IC50 (Dihydrofolate reductase [12]) was 7.69 nM and the inhibition [13] was 61.3%.

In the case of `COc1cc(C(C)C)c(Oc2cnc(N)nc2N)cc1-c1ccc(C(C)C)cc1`, the IC50 (Dihydrofolate reductase [7]) is reported as 2910 nM, the MIC (Staphylococcus aureus [1]) is reported as 0.25 µg/mL (≈ 0.637 µM) and the MIC (Staphylococcus aureus [2]) is reported as 0.25 µg/mL (≈ 0.637 µM). It also gave an MIC (Staphylococcus aureus [3]) of 1 µg/mL (≈ 2.55 µM), an MIC (Staphylococcus aureus [4]) of 4 µg/mL (≈ 10.2 µM) and an MIC (Staphylococcus aureus [5]) of 4 µg/mL (≈ 10.2 µM). For the same compound, the inhibition at 24 h, 100 µM [10] was 46.9%, the inhibition at 24 h, 100 µM [11] was 44% and the IC50 (Dihydrofolate reductase [12]) was 1.81 nM. The inhibition [13] was 55.7%.

In the case of `COc1cc(C(C)C)c(Oc2cnc(N)nc2N)cc1-c1ccc(Cl)c(C(F)(F)F)c1`, the MIC (Staphylococcus aureus [1]) is reported as 0.5 µg/mL (≈ 1.1 µM), the MIC (Staphylococcus aureus [2]) is reported as 0.5 µg/mL (≈ 1.1 µM) and the MIC (Staphylococcus aureus [3]) is reported as 2 µg/mL (≈ 4.42 µM). For the same compound, the MIC (Staphylococcus aureus [4]) was 4 µg/mL (≈ 8.83 µM), the MIC (Staphylococcus aureus [5]) was 4 µg/mL (≈ 8.83 µM) and the inhibition at 24 h, 100 µM [10] was 41%. For the same compound, the inhibition at 24 h, 100 µM [11] was 37.8%, the IC50 (Dihydrofolate reductase [12]) was 142 nM and the inhibition [13] was 67.4%.

With `COc1cc(C(C)C)c(Oc2cnc(N)nc2N)cc1-c1ccc2c(c1)OCO2` the MIC (Staphylococcus aureus [1]) was 0.5 µg/mL (≈ 1.27 µM), the MIC (Staphylococcus aureus [2]) was 0.25 µg/mL (≈ 0.634 µM) and the MIC (Staphylococcus aureus [3]) was 2 µg/mL (≈ 5.07 µM). It also gave an MIC (Staphylococcus aureus [4]) of 32 µg/mL (≈ 81.1 µM), an MIC (Staphylococcus aureus [5]) of 16 µg/mL (≈ 40.6 µM) and an inhibition at 24 h, 100 µM [10] of 26.8%. For the same compound, the inhibition at 24 h, 100 µM [11] was 62.3%, the IC50 (Dihydrofolate reductase [12]) was 34.8 nM and the inhibition [13] was > 100%.

For `COc1cc(C(C)C)c(Oc2cnc(N)nc2N)cc1-c1ccc(F)cc1`, the MIC (Staphylococcus aureus [1]) was 0.25 µg/mL (≈ 0.679 µM), the MIC (Staphylococcus aureus [2]) was 0.25 µg/mL (≈ 0.679 µM) and the MIC (Staphylococcus aureus [3]) was 1 µg/mL (≈ 2.71 µM). It also gave an MIC (Staphylococcus aureus [4]) of 16 µg/mL (≈ 43.4 µM), an MIC (Staphylococcus aureus [5]) of 16 µg/mL (≈ 43.4 µM) and an inhibition at 24 h, 100 µM [10] of 46.9%. It also gave an inhibition at 24 h, 100 µM [11] of 60.3%, an IC50 (Dihydrofolate reductase [12]) of 69.5 nM and an inhibition [13] of 27.2%.

`COc1cc(C(C)C)c(Oc2cnc(N)nc2N)cc1-c1ccc(OC(F)(F)F)cc1` gave an MIC (Staphylococcus aureus [1]) of 0.25 µg/mL (≈ 0.575 µM), an MIC (Staphylococcus aureus [2]) of 0.25 µg/mL (≈ 0.575 µM) and an MIC (Staphylococcus aureus [3]) of 1 µg/mL (≈ 2.3 µM). For the same compound, the MIC (Staphylococcus aureus [4]) was 8 µg/mL (≈ 18.4 µM), the MIC (Staphylococcus aureus [5]) was 8 µg/mL (≈ 18.4 µM) and the inhibition at 24 h, 100 µM [10] was 43.5%. The inhibition at 24 h, 100 µM [11] was 63.6%, the IC50 (Dihydrofolate reductase [12]) was 19.1 nM and the inhibition [13] was > 100%.

Compound `CCCOc1cc(C(C)C)c(Oc2cnc(N)nc2N)cc1I` has an MIC (Staphylococcus aureus [1]) of 0.016 µg/mL (≈ 0.0374 µM), an MIC (Staphylococcus aureus [2]) of 0.016 µg/mL (≈ 0.0374 µM) and an MIC (Staphylococcus aureus [3]) of 0.5 µg/mL (≈ 1.17 µM). The MIC (Staphylococcus aureus [4]) was > 32 µg/mL, the MIC (Staphylococcus aureus [5]) was > 32 µg/mL and the inhibition at 24 h, 100 µM [10] was 47.4%. It also gave an inhibition at 24 h, 100 µM [11] of 66.7%, an IC50 (Dihydrofolate reductase [12]) of 45 nM and an inhibition [13] of 43.8%.

With `COc1cc(C(C)C)c(Oc2cnc(N)nc2N)cc1-c1ccc(C(=O)O)cc1` the MIC (Staphylococcus aureus [1]) was 0.063 µg/mL (≈ 0.16 µM), the MIC (Staphylococcus aureus [2]) was 0.063 µg/mL (≈ 0.16 µM) and the MIC (Staphylococcus aureus [3]) was < 0.25 µg/mL. It also gave an MIC (Staphylococcus aureus [4]) of 2 µg/mL (≈ 5.07 µM), an MIC (Staphylococcus aureus [5]) of 2 µg/mL (≈ 5.07 µM) and an inhibition at 24 h, 100 µM [10] of 29.9%. It also gave an inhibition at 24 h, 100 µM [11] of 6.53%, an IC50 (Dihydrofolate reductase [12]) of 4.44 nM and an inhibition [13] of 45.1%.

`COc1ccc(Oc2cnc(N)nc2N)cc1-c1ccc(OC(F)(F)F)cc1` showed an MIC (Staphylococcus aureus [1]) of 0.002 µg/mL (≈ 0.0051 µM), an MIC (Staphylococcus aureus [2]) of 0.002 µg/mL (≈ 0.0051 µM) and an MIC (Staphylococcus aureus [3]) of 2 µg/mL (≈ 5.1 µM). The MIC (Staphylococcus aureus [4]) was 4 µg/mL (≈ 10.2 µM), the MIC (Staphylococcus aureus [5]) was 4 µg/mL (≈ 10.2 µM) and the inhibition at 24 h, 100 µM [10] was 39.4%. It also gave an inhibition at 24 h, 100 µM [11] of 69.9%, an IC50 (Dihydrofolate reductase [12]) of 15.9 nM and an inhibition [13] of 51.1%.
